Assay results from patent US11739074B2, “Ras inhibitors” (Revolution Medicines, Inc., priority 2019, dated 2023).
“And” between values parts separate entries of the source, which are not always exact repeats. Identical values can stand only once. Like-named read-outs stand apart in the source and are kept apart here.

Columns and labels:
AsPC-1 (K-Ras G12D) [1] = experiment: CellTiter-Glo cell viability assay, AsPC-1; format: cell-based; settings: Homo sapiens, ASPC1, 120 h, AsPC-1, K-Ras G12D, 5-day treatment; read-out: AsPC-1 Cell Viability IC50
Outline: (§1)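 Percent-of-DMSO luminescence values (CellTiter-Glo, day 5, plates equilibrated ~30 minutes at ambient temperature) were curve-fitted using a 4-parameter logistic equation; compounds had been added straight into wells containing the cells.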

KRAS G13D = KRAS G13D (Homo sapiens, UniProt P01116+P62937, G13D); experiment: Ras-Raf disruption/FRET/MOA assay, KRAS G13D; format: biochemical; settings: disruption of BRAF RBD binding, with Cyclophilin A; read-out: KRAS G13D FRET IC50
Sequence of KRAS G13D (P01116 1-169 isoform P01116-2 G13D limits assumed): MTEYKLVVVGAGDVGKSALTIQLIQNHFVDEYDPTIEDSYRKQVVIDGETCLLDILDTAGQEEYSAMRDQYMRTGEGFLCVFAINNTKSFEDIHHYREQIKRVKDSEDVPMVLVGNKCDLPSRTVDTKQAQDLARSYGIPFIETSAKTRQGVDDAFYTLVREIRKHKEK
Sequence of KRAS G13D (P62937 whole entry, the tested form may be a part): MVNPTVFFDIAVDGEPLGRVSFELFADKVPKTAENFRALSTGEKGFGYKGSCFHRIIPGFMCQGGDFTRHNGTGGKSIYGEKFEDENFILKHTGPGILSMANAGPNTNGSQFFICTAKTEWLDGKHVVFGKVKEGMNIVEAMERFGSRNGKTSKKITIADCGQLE
Excerpt: (§2) Disruption of B-Raf Ras-Binding Domain (BRAF^RBD) Interaction with K-Ras by Compounds of the Invention (Also Called a FRET Assay or an MOA Assay)
(§3) Note—The following protocol describes a procedure for monitoring disruption of K-Ras G12C (GMP-PNP) binding to BRAF^RBD by a compound of the invention. This protocol may also be executed substituting other Ras proteins or nucleotides, such as K-Ras G12D and K-Ras G13D.
(§4) The purpose of this biochemical assay was to measure the ability of test compounds to facilitate ternary complex formation between a nucleotide-loaded K-Ras isoform and Cyclophilin A; the resulting ternary complex disrupts binding to a BRAF^RBD construct, inhibiting K-Ras signaling through a RAF effector.
(§5) In assay buffer containing 25 mM HEPES pH 7.3, 0.002% Tween20, 0.1% BSA, 100 mM NaCl and 5 mM MgCl2, tagless Cyclophilin A, His6-K-Ras-GMPPNP, and GST-BRAF^RBD were combined in a 384-well assay plate at final concentrations of 25 μM, 12.5 nM, and 50 nM, respectively. Compound was present in plate wells as a 10-point 3-fold dilution series starting at a final concentration of 30 μM. After incubation at 25° C. for 3 hours, a mixture of anti-His Eu-W1024 and anti-GST allophycocyanin was then added to assay sample wells at final concentrations of 10 nM and 50 nM, respectively, and the reaction incubated for an additional 1.5 hours. […] Compounds that facilitate disruption of a K-Ras:RAF complex were identified as those eliciting a decrease in the TR-FRET ratio relative to DMSO control wells.

KRAS G12S = KRAS G12S (Homo sapiens, UniProt P01116+P62937, G12S); experiment: Ras-Raf disruption/FRET/MOA assay, KRAS G12S; format: biochemical; settings: disruption of BRAF RBD binding, with Cyclophilin A; read-out: KRAS G12S FRET IC50
Sequence of KRAS G12S (P01116 1-169 isoform P01116-2 G12S limits assumed): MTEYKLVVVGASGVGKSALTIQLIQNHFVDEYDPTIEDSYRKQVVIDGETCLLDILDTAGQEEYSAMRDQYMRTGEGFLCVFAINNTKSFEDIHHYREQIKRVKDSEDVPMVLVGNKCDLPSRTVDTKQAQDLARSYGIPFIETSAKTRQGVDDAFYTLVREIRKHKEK
Sequence of KRAS G12S (P62937 whole entry): as the sequence (P62937 whole entry, the tested form may be a part) above
Excerpt: as §2, §3, §4, §5

KRAS G13C = KRAS G13C (Homo sapiens, UniProt P01116+P62937, G13C); experiment: Ras-Raf disruption/FRET/MOA assay, KRAS G13C; format: biochemical; settings: disruption of BRAF RBD binding, with Cyclophilin A; read-out: KRAS G13C FRET IC50
Sequence of KRAS G13C (P01116 1-169 isoform P01116-2 G13C limits assumed): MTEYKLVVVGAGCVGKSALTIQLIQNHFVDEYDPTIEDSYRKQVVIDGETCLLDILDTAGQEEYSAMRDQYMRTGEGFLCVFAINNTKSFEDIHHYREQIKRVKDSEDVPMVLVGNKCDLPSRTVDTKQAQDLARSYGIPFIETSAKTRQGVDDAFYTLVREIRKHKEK
Sequence of KRAS G13C (P62937 whole entry): as the sequence (P62937 whole entry, the tested form may be a part) above
Excerpt: as §2, §3, §4, §5

KRAS G12V = KRAS G12V (Homo sapiens, UniProt P01116+P62937, G12V); experiment: Ras-Raf disruption/FRET/MOA assay, KRAS G12V; format: biochemical; settings: disruption of BRAF RBD binding, with Cyclophilin A; read-out: KRAS G12V FRET IC50
Sequence of KRAS G12V (P01116 1-169 isoform P01116-2 G12V limits assumed): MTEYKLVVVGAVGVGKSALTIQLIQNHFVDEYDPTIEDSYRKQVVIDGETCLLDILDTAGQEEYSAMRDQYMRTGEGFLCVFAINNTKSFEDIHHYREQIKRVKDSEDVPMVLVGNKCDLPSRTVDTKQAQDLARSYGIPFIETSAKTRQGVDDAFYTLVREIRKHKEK
Sequence of KRAS G12V (P62937 whole entry): as the sequence (P62937 whole entry, the tested form may be a part) above
Excerpt: as §2, §3, §4, §5

KRAS G12D = KRAS G12D (Homo sapiens, UniProt P01116+P62937, G12D); experiment: Ras-Raf disruption/FRET/MOA assay, KRAS G12D; format: biochemical; settings: disruption of BRAF RBD binding, with Cyclophilin A; read-out: KRAS G12D FRET IC50
Sequence of KRAS G12D (P01116 1-169 isoform P01116-2 G12D limits assumed): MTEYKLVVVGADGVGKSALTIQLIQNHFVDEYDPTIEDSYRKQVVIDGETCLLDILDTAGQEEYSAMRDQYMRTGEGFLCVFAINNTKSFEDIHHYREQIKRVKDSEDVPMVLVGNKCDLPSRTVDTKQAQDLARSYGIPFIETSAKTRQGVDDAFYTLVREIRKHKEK
Sequence of KRAS G12D (P62937 whole entry): as the sequence (P62937 whole entry, the tested form may be a part) above
Excerpt: as §2, §3, §4, §5

KRAS WT = KRAS WT (Homo sapiens, UniProt P01116+P62937); experiment: Ras-Raf disruption/FRET/MOA assay, KRAS WT; format: biochemical; settings: disruption of BRAF RBD binding, with Cyclophilin A; read-out: KRAS WT FRET IC50
Sequence of KRAS WT (P01116 1-169 isoform P01116-2 limits assumed): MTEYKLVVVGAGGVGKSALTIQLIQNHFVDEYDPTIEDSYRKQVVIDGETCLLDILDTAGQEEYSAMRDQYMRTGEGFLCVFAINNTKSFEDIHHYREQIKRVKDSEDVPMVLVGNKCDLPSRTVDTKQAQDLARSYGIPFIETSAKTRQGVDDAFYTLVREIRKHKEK
Sequence of KRAS WT (P62937 whole entry): as the sequence (P62937 whole entry, the tested form may be a part) above
Excerpt: as §2, §3, §4, §5

KRAS G12C = KRAS G12C (Homo sapiens, UniProt P01116+P62937, G12C); experiment: Ras-Raf disruption/FRET/MOA assay, KRAS G12C; format: biochemical; settings: disruption of BRAF RBD binding, with Cyclophilin A; read-out: KRAS G12C FRET IC50
Sequence of KRAS G12C (P01116 1-169 isoform P01116-2 G12C limits assumed): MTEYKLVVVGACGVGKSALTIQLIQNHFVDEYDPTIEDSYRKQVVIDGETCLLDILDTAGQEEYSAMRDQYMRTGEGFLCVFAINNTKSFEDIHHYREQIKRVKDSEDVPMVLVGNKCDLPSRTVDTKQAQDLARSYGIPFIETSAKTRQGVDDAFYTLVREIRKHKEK
Sequence of KRAS G12C (P62937 whole entry): as the sequence (P62937 whole entry, the tested form may be a part) above
Excerpt: as §2, §3, §4, §5

NRAS G12C = molecular target: T1, NRAS G12C (Homo sapiens, UniProt P01111+P62937, G12C); experiment: Ras-Raf disruption/FRET/MOA assay, NRAS G12C; format: biochemical; settings: NRAS G12C; read-out: NRAS G12C FRET data IC50
T1 construct: His6
T1 sequence (P01111 whole entry G12C): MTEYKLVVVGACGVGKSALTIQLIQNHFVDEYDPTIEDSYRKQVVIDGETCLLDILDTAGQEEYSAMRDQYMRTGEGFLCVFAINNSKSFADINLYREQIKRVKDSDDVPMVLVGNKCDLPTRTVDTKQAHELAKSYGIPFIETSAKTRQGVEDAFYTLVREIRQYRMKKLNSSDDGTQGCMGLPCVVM
T1 sequence (P62937 whole entry): as the sequence (P62937 whole entry, the tested form may be a part) above
Excerpt: as §2, §3, §4, §5

AsPC-1 (K-Ras G12D) [2] = experiment: Potency assay: pERK in AsPC-1 cells; format: cell-based; settings: Homo sapiens, ASPC1; AsPC-1 cells, K-Ras G12D; read-out: pERK EC50 (AsPC-1 KRAS G12D)
NCI-H358 (K-Ras G12C) = experiment: CellTiter-Glo cell viability assay, H358; format: cell-based; settings: Homo sapiens, NCI-H358, 120 h, read-out: H358 Cell Viability IC50
Outline: as §1

[3] = NCI-H358, K-Ras G12C, 5-day treatment

| Structure (SMILES) | IC50 (AsPC-1 (K-Ras G12D) [1]) [nM] | IC50 (KRAS G13D) [nM] | IC50 (KRAS G12S) [nM] | IC50 (KRAS G12V) [nM] | IC50 (KRAS G12D) [nM] | IC50 (KRAS WT) [nM] | IC50 (NRAS G12C) | IC50 (NCI-H358 (K-Ras G12C); [3]) [nM] | IC50 (KRAS G13C) [nM] | IC50 (KRAS G12C) [nM] | EC50 (AsPC-1 (K-Ras G12D) [2]) [nM] | IC50 (NCI-H358 (K-Ras G12C)) [nM] |
| --- | --- | --- | --- | --- | --- | --- | --- | --- | --- | --- | --- | --- |
| CCn1c(-c2cccnc2[C@H](C)OC)c2c3cc(ccc31)-c1cc(O)cc(c1)C[C@H](NC(=O)[C@H](C(C)C)N(C)C(=O)N1CCN(C(=O)[C@@H]3CN3)CC1)C(=O)N1CCC[C@H](N1)C(=O)OCC(C)(C)C2 (atropisomer, axis not shown) [Compound 197] | 1000 to 10000 | 10 to 100 | 10 to 100 | 10 to 100 | 100 to 1000 | 10 to 100 | 10 to 100 nM |  | 10 to 100 | 10 to 100 |  |  |
| CCn1c(-c2cccnc2[C@H](C)OC)c2c3cc(ccc31)-c1csc(n1)C[C@H](NC(=O)[C@H](C(C)C)N(C)C(=O)N1CC(N(C)C(=O)[C@H]3CN3)C1)C(=O)N1CCC[C@H](N1)C(=O)OCC(C)(C)C2 (atropisomer, axis not shown) [Compound 218] | 1000 to 10000 |  |  |  |  |  |  |  |  | 100 to 1000 | < 5000 |  |
| CCn1c(-c2cnccc2COC)c2c3cc(ccc31)-c1cccc(c1)C[C@H](NC(=O)[C@H](C(C)C)N(C)C(=O)CCN=C=NCCCN1CCOCC1)C(=O)N1CCC[C@H](N1)C(=O)OCC(C)(C)C2 [17 A and B] | 1000 to 10000 |  |  |  |  |  |  | 1000 to 10000 |  | 100 to 1000 | < 5000 |  |
| CCCN=C=NCCC(=O)N(C)[C@H](C(=O)N[C@H]1Cc2cccc(c2)-c2ccc3c(c2)c(c(-c2cnccc2COC)n3CC)CC(C)(C)COC(=O)[C@@H]2CCCN(N2)C1=O)C(C)C [22 A and B] | 1000 to 10000 |  |  |  | 1000 to 10000 |  |  | 1000 to 10000 |  |  |  |  |
| CCn1c(-c2cnccc2COC)c2c3cc(ccc31)-c1cc(O)cc(c1)C[C@H](NC(=O)[C@@H](CCNC(=O)NCCCl)C(C)C)C(=O)N1CCC[C@H](N1)C(=O)OCC(C)(C)C2 [Compound 26] |  |  |  | > 10000 |  |  |  |  |  |  |  | 1000 to 10000 |

Further lines, with some results ahead:

| IC50 (AsPC-1 (K-Ras G12D) [1]) [nM] | IC50 (KRAS G13D) [nM] | IC50 (KRAS G12S) [nM] | IC50 (KRAS G12V) [nM] | IC50 (KRAS G12D) [nM] | IC50 (KRAS WT) [nM] | IC50 (NRAS G12C) | IC50 (NCI-H358 (K-Ras G12C); [3]) [nM] | Structure (SMILES) | IC50 (KRAS G13C) [nM] | IC50 (KRAS G12C) [nM] | EC50 (AsPC-1 (K-Ras G12D) [2]) [nM] | IC50 (NCI-H358 (K-Ras G12C)) [nM] |
| --- | --- | --- | --- | --- | --- | --- | --- | --- | --- | --- | --- | --- |
| 1000 to 10000 |  |  | > 10000 |  |  |  | 1000 to 10000 | CCn1c(-c2cnccc2COC)c2c3cc(ccc31)-c1cccc(c1)C[C@H](NC(=O)[C@H](C(C)C)N(C)C(=O)CCCN=C=NCCCOC)C(=O)N1CCC[C@H](N1)C(=O)OCC(C)(C)C2 [69 A and B] |  |  |  |  |
|  | > 10000 | > 10000 | > 10000 |  | > 10000 | 100 to 1000 nM and > 10000 nM |  | CCn1c(-c2cnccc2COC)c2c3cc(ccc31)-c1cccc(c1)C[C@H](NC(=O)[C@H](C(C)C)N(C)C(=O)[C@@H]1CC[C@@H](N=C=Nc3ccc(OC)cc3)C1)C(=O)N1CCC[C@H](N1)C(=O)OCC(C)(C)C2 [70 A and B] |  |  |  |  |
|  | > 10000 | > 10000 | > 10000 | > 10000 | > 10000 | 100 to 1000 nM and > 10000 nM |  | CCn1c(-c2cnccc2COC)c2c3cc(ccc31)-c1cccc(c1)C[C@H](NC(=O)[C@H](C(C)C)N(C)C(=O)[C@H]1CC[C@H](N=C=Nc3ccc(OC)cc3)C1)C(=O)N1CCC[C@H](N1)C(=O)OCC(C)(C)C2 [71 A and B] | > 10000 |  |  |  |
|  |  |  | > 10000 |  |  |  | > 10000 | CCn1c(-c2cccnc2COC)c2c3cc(ccc31)-c1cc(O)cc(c1)C[C@H](NC(=O)[C@H](C(C)C)N(C)C(=O)CCNC1=NCCO1)C(=O)N1CCC[C@H](N1)C(=O)OCC(C)(C)C2 [Compound 27] |  |  |  |  |
